Values quoted from earlier work in US8747895B2 (priority 2004, dated 2014).
Like-named read-outs stand apart in the source and are kept apart here.

Conditions: for absolute bioavailability: oral administration

In the case of “(−)-N-Methyl-3-(o-tolyloxy)-propylamine hydrochloride [Atomoxetine]”, the absolute bioavailability (EMs (extensive metabolizers)) is given as 63%, the absolute bioavailability (PMs (poor metabolizers)) is given as 94% and the “delay of Tmax with food” value (standard high-fat meal) is given as 3 h. For the same substance, the “lower Cmax with food” value (standard high-fat meal) was 10-37%.
